Experimental data as given in ChEMBL document CHEMBL1153054, “Functionalized 3-amino-imidazo[1,2-a]pyridines: a novel class of drug-like Mycobacterium tuberculosis glutamine synthetase inhibitors” (Bioorg Med Chem Lett, 2009).

Assay: Inhibition of Mycobacterium tuberculosis glutamine synthetase

Compound | IC50 (read-out: IC50) [µM] | IC50
Nc1cccc(-c2nc3ccc(Br)cn3c2NC2CCCC2)c1 | 10.1 | –
COc1ccc(-c2nc3ccc(I)cn3c2NC2CCCC2)cc1O | 4.8 | –
O=[N+]([O-])c1cccc(-c2nc3ccc(Br)cn3c2NC2CCCC2)c1 | > 50 | –
OCc1cccc(-c2nc3ccc(Br)cn3c2NC2CCCC2)c1 | 13.2 | –
COc1ccc(-c2nc3cccc(Br)n3c2NC2CCCC2)cc1O | > 50 | –
Oc1cccc(-c2nc3ccc(Br)cn3c2NC2CCCC2)c1 | > 50 | –
COc1ccc(-c2nc3ccc(-c4ccccc4)cn3c2NC2CCCC2)cc1O | > 50 | –
COc1ccc(-c2nc3ccc(F)cn3c2NC2CCCC2)cc1O | > 50 | –
COc1ccc(-c2nc3ccc(/C=C/c4ccccc4)cn3c2NC2CCCC2)cc1O | > 50 | –
COc1ccc(-c2nc3c(C)cc(Br)cn3c2NC2CCCC2)cc1O | 12.7 | –
COc1cccc(-c2nc3ccc(Br)cn3c2NC2CCCC2)c1 | > 50 | –
COc1ccc(-c2nc3ccc(Cl)cn3c2NC2CCCC2)cc1O | 11.2 | –
O=[N+]([O-])c1ccc(-c2nc3ccc(Br)cn3c2NC2CCCC2)cc1O | > 50 | –
COc1ccc(-c2nc3c(Br)cc(Br)cn3c2NC2CCCC2)cc1O | > 50 | –
COc1ccc(-c2nc3c(Br)cccn3c2NC2CCCC2)cc1O | 21.3 | –
COc1ccc(-c2nc3ccc(Br)cn3c2NC2CCCC2)cc1O | 8.8 | –
Brc1ccc2nc(-c3ccccc3)c(NC3CCCC3)n2c1 | > 50 | –

Compound | IC50 (read-out: IC50) [µM] | IC50
COc1cccc(-c2nc3ccc(Br)cn3c2NC2CCCC2)c1OC | > 50 | –
O=C(O)c1cccc(-c2nc3ccc(Br)cn3c2NC2CCCC2)c1 | 0.38 | –
COc1cc(-c2nc3ccc(Br)cn3c2NC2CCCC2)ccc1O | > 50 | –
Brc1ccc2ncc(NC3CCCC3)n2c1 | > 50 | –
COc1ccc(-c2nc3ccc(Oc4ccccc4)cn3c2NC2CCCC2)cc1O | > 50 | –
Oc1ccccc1-c1nc2ccc(Br)cn2c1NC1CCCC1 | > 50 | –
COc1ccc(-c2nc3ccc(-c4ccncc4)cn3c2NC2CCCC2)cc1O | > 50 | –
COc1ccc(-c2nc3ccc(C)cn3c2NC2CCCC2)cc1O | > 50 | –
COc1ccc(-c2nc3ccc(Cc4ccccc4)cn3c2NC2CCCC2)cc1O | > 50 | –
COc1ccc2nc(-c3ccc(OC)c(O)c3)c(NC3CCCC3)n2c1 | 31.3 | –
COc1ccc(-c2nc3ccc(C#N)cn3c2NC2CCCC2)cc1O | > 50 | –
COc1ccc(-c2nc3ccccn3c2NC2CCCC2)cc1O | > 50 | –
COc1ccc(-c2nc3ccc(C(F)(F)F)cn3c2NC2CCCC2)cc1O | > 50 | –
Oc1cccc(-c2nc3ccc(Br)cn3c2NC2CCCC2)c1Cl | > 50 | –
Oc1ccc(-c2nc3ccc(Br)cn3c2NC2CCCC2)cc1 | – | ND(Insoluble)
COc1ccc(-c2nc3ccc(CCc4ccccc4)cn3c2NC2CCCC2)cc1O | > 50 | –
